Columns and labels:
Candida albicans 103 = assay: Checkerboard microdilution assay with fluconazole; assay type: cell-based
From the text: Ta b l e S3. Interaction of fluconazole ( FLC) and BE probes against isolates of Candida albicans
Compounds Molecular structure Individual action Interaction MIC(μg/ mL ) FICI Mode of
MIC (μg /mL) FLC Compounds interaction

[1] = tested on: C. albicans eno1/eno1 mutant strain; assay: Galleria mellonella infection model, eno1/eno1 strain; assay type: in vivo, Candida albicans; details: G. mellonella, 10 mg/kg
Method: To assess whether Eno1 is a therapeutic target of BE, we constructed a homozygous deletion strain for the ENO1 gene (eno1/eno1). We then investigated the difference in the antifungal efficacy of BE on the infections caused by the parent strain SN152 and the eno1/eno1 strain in the Galleria mellonella infection model. We divided the G. mellonella into 5 groups, with 10 larvae in each group. All 10 larvae died after a 24-h infection with the SN152 strain, while only 3 larvae died after 24 h when infected with the eno1/eno1 strain; the remaining larvae died within 7 days. Compared with the group infected with the parent strain, the survival time of the group infected with the eno1/eno1 strain was longer (P < 0.01) (Fig. 4A). […] The survival rate of larvae in the BE (10 mg/kg of body weight)-treated, SN152 strain-infected group was extended by 30%, compared with that in the group infected with the SN152 strain but without antifungal drug treatment (P < 0.001) (Fig. 4B). […] All 10 larvae in the BE-treated group died within 6 days, and all 10 larvae without BE treatment were killed within 7 days (Fig. 4C). However, FLC (10 mg/kg) can extend the survival rate of larvae infected by the eno1/eno1 strain by 60% (P < 0.01) (Fig. 4D) compared with the group infected with the eno1/eno1 strain without antifungal drug treatment.
FIG 4 Eno1 acts as a therapeutic target of BE. […] Each curve represents a group of 10 larvae (n =10) monitored daily for survival for up to 10 days after infection. […]
Virulence testing of C. albicans was done in Galleria mellonella as described previously ([56]). […] After growth in YPD media overnight at 30°C and 200 rpm, C. albicans SN152 cells or eno1/eno1 mutant cells were washed with PBS 3 times and diluted to the desired concentration (1 × 10^7 cells/mL) determined by counting with a hemacytometer. […] The death of G. mellonella was assessed daily and analyzed statistically by the Kaplan-Meier method (log-rank test).

CaEno1 = target: T1, CaEno1 (Candida albicans, UniProt P30575); details: read-out: IC50 inhibiting enolase activity; CaEno1 30 nM, 2-PG 1 mM
T1 sequence (P30575 1-440): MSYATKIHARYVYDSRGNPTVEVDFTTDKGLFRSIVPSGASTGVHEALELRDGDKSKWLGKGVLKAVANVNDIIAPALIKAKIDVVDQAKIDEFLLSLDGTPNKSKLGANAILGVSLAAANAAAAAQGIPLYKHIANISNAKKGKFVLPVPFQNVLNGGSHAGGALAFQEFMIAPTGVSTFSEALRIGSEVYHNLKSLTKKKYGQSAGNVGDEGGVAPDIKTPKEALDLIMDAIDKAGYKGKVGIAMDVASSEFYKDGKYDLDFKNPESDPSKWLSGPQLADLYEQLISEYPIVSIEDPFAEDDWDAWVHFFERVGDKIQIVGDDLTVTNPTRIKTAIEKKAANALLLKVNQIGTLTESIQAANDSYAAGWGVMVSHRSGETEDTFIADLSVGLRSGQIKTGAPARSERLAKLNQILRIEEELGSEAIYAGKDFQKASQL
Method: Data are shown as the means ± standard deviations. […] Data are shown as the means ± standard deviations.
Enolase activity was determined by direct spectrophotometric assay via measuring the increase of absorbance at 240 nm of phosphoenolpyruvate (PEP) as described previously with some modifications ([54]). Briefly, the reaction buffer (pH 7.0) containing 10 mM imidazole, 200 mM KCl, and 0.5 mM MgAc in a final reaction volume of 100 μL was mixed with Eno1 (a final concentration of 30 nM), followed by the mixture of 2-phosphoglycerate (2-PG) (Yuanye Biotech Shanghai) with a final concentration of 1 mM. The enolase activity of Eno1 was evaluated by measuring the increase of absorbance (OD240) at room temperature for 10 min. […] The well-known enolase inhibitor sodium fluoride (NaF; Sangon Biotech) was initiated from 5 mM and used as a control ([29]). Inhibition curves were fitted by nonlinear regression (four parameters) using the GraphPad Prism software.

[2] = target: the molecule itself; assay: crystal structure; X-ray crystals of CaEno1 alone and of CaEno1 with 2-PG, sitting drop at 13°C, space group C2; four Eno1 chains (two dimers) in the asymmetric unit

Molecule: C#CCOc1cc(C2(C(F)(F)F)N=N2)ccc1COc1cc2oc(-c3ccccc3)cc(=O)c2c(O)c1N [BE-1]
- Interaction MIC FLC (Candida albicans 103; MIC of FLC in combination with the compound): > 64 µg/mL
- Interaction MIC Compounds (Candida albicans 103; MIC of the compound in combination with FLC): 1 µg/mL
- FICI (Candida albicans 103; combination with FLC): 1.01
- Mode of interaction (Candida albicans 103; combination with FLC, FLC-resistant C. albicans): Indifference
- Individual action MIC (Candida albicans 103; compound alone): > 64 µg/mL

Molecule: OC(Cn1cncn1)(Cn1cncn1)c1ccc(F)cc1F [FLC, fluconazole]
- survival rate of larvae extended versus infected group without drug treatment [1]: 60%

Molecule: [F-].[Na+] [NaF, sodium fluoride]
- IC50 (CaEno1): 504 ± 7.1 µM

B1: C. albicans Eno1 (enzyme, UniProt P30575 1-440, looked up)
chain: T1 sequence (P30575 1-440)
notes: also called CaEno1; enolase; source: E. coli BL21(DE3), purified (Ni-NTA, Superdex 200 SEC)
- stoichiometry N [2]: 2
